Entries after “also recorded” stand apart in the source; their conditions may differ.

Common to all, as to assay type: cell-based, human
Data set [1] concerns osteoblasts differentiated from CFC-iPSCs. Briefly: Differentiation of CFC syndrome patient derived iPSCs into osteoblasts through mesenchymal stem cells. To be noted: CFC patient iPSC-derived cells; FIG. 13 to FIG. 15. The text has this:
[…] The iPSCs derived from wild type (WT) individuals and the iPSCs derived from CFC syndrome patients were induced to be differentiated in vitro for about 30 days by referring to the protocol proposed in a previous paper (Mahmood, Harkness et al. 2010). Particularly, CFC-iPSC colony was divided into 4 to 9 sections (0.5 mm×0.5 mm/each section) by using a tissue chopper provided from Mickle Laboratory Engineering Co. The sections were treated with 10 mg/ml of dispase at 37° C. for 4 minutes and then the sections were detached from the cell culture dish. The separated cell sections were transferred in a Petri dish, followed by culture in EB medium (embryoid body differentiation medium), the Dulbecco's modified Eagle's medium (DMEM/F12) supplemented with 10% serum replacement (SR), 1% penicillin-streptomycin and 1% non-essential amino acids, for a day. […]
To differentiate into osteoblasts, the MSCs were treated with 0.25% trypsin-EDTA at 37° C. for 2 minutes and separated from the culture dish. […] The cells were washed with distilled water twice and the degree of color change into red was measured to investigate the calcium ion deposition. […]

Data set [2] has as its system osteoblasts differentiated from CFC-MSCs. Briefly: Bone mineral deposition (alizarin red S and von Kossa staining) in osteoblasts differentiated from CFC-MSCs. Particulars: treated on day 1 for 24 hours (U0126 5 μM, SB-431542 5 μM, BMP4 50 ng/ml), alizarin red S day 14, von Kossa day 21, FIG. 14. As to the method:
(§1) To differentiate into osteoblasts, the MSCs were treated with 0.25% trypsin-EDTA at 37° C. for 2 minutes and separated from the culture dish. The cells were spread on a 4-well culture dish at the density of 2.5×10^4 cells/cm^2, which were cultured in MSC culture medium at 37° C. for 3 days until the cells were full. 3 days later, the medium was replaced with STEMPRO osteogenesis differentiation Medium (Invitrogen), and the medium was replaced every three days. The activity of ALP, which is an enzyme essential for the formation of hydroxyapatite, a major component of bone mineral, and an indicator of osteoblast differentiation, was investigated at 7 day intervals by using an ALP kit (Leucocyte Alkaline Phosphatase Kit, Sigma-Aldrich). […] The cells were washed with distilled water twice and the degree of color change into red was measured to investigate the calcium ion deposition.
(§2) Particularly, the differentiation of CFC-MSCs into osteoblasts was induced by the same manner as described in Experimental Example <2-2>. […] ALP enzyme activity was measured on the 7th day of the differentiation, and alizarin red S staining was performed on the 14th day of the differentiation by the same manner as described in Experimental Example <2-2>. […] After washing the cells with distilled water twice, the amount of calcium deposition was evaluated by the degree of darkening.

Data set [3] shares this test system. Briefly: ALP enzyme activity (ALP kit staining) in osteoblasts differentiated from CFC-MSCs. Particulars: treated on day 1 for 24 hours (U0126 5 μM, SB-431542 5 μM, BMP4 50 ng/ml), measured on 7th day of differentiation, FIG. 13. As for the experimental part: as §1, §2

Turning to `NC(=O)c1ccc(-c2nc(-c3ccc4c(c3)OCO4)c(-c3ccccn3)[nH]2)cc1` [SB-431542], in data set [1], the “differentiation ability into osteoblasts” value is “improved; also recorded: efficient in improving the differentiation ability”. The bone mineral deposition result in data set [2] was “increase”. Further, the ALP enzyme activity entry in data set [3] is “increase”.

B1: BMP4: recombinant human bone morphogenic protein 4, BMP signaling pathway activator, SEQ. ID. NO: 13 (R&D systems) (protein, listed as Homo sapiens)
chain: MIPGNRMLMVVLLCQVLLGGASHASLIPETGKKKVAEIQGHAGGRRSGQSHELLRDFEATLLQMFGLRRRPQPSKSAVIPDYMRDLYRLQSGEEEEEQIHSTGLEYPERPASRANTVRSFHHEEHLENIPGTSENSAFRFLFNLSSIPENEVISSAELRLFREQVDQGPDWERGFHRINIYEVMKPPAEVVPGHLITRLLDTRLVHHNVTRWETFDVSPAVLRWTREKQPNYGLAIEVTHLHQTRTHQGQHVRISRSLPQGSGNWAQLRPLLVTFGHDGRGHALTRRRRAKRSPKHHSQRARKKNKNCRRHSLYVDFSDVGWNDWIVAPPGYQAFYCHGDCPFPLADHLNSTNHAIVQTLVNSVNSSIPKACCVPTELSAISMLYLDEYDKVVLKNYQEMVVEGCGCR
With B1, the “differentiation ability into osteoblasts” value in data set [1] is on record as “efficient in improving the differentiation ability”. In addition, the bone mineral deposition result in data set [2] is listed as “increase”. In addition, the ALP enzyme activity result in data set [3] is on record as “increase”.
